Experimental data taken from PubChem BioAssay AID651703 (Broad Institute, 2012).
“And” between values parts separate entries of the source, which are not always exact repeats. Equal entries are not always repeated.

The compounds below were run against Transforming acidic coiled-coil-containing protein 3 (Homo sapiens) (UniProt Q9Y6A5) (assay: inhibition of ARNT PAS-B/TACC3 complex formation – biochemical, AlphaScreen, cherry-picked samples, confirmation (AID 651703;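 also: TACC3 partner is the GST-tagged E629A mutant dimer; hits lower the signal meaning they disrupt ARNT binding to TACC3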)). Conditions: AlphaScreen His-ARNT PAS-B / GST-TACC3 binding, luminescence.

Structure (SMILES)	AC50
CN(C)CCCNC(=O)c1ccc(-c2cc(O)c3ncccc3c2)cc1	2.78 µM
COc1c(O)cccc1/C=N/NC(=O)Cn1ccnc1C	8.02 µM
C/C=C/c1ccc([C@@H]2[C@H](CO)N(Cc3ccccn3)[C@H]2CNC(C)=O)cc1	47.8 µM
Oc1ccc(CN2CCc3ccccc3C2)c2cccnc12	0.919 µM and 1.08 µM and 2.25 µM
O=C(Cn1cncn1)N/N=C/c1cc([N+](=O)[O-])ccc1O	4.04 µM
COc1cc([N+](=O)[O-])cc(/C=N/NC(=O)Cn2cncn2)c1O	5.87 µM
CCCCC(=O)NC(c1ccc(N(C)C)cc1)c1ccc2cccnc2c1O (stereo unspecified)	2.63 µM
CC1CCCC(C)N1/N=C/c1ccc([N+](=O)[O-])cc1 (stereo unspecified)	17 µM
CC(Oc1ccc(F)cc1)C(=O)Nc1nc(-c2ccccn2)cs1 (stereo unspecified)	8.7 µM
O=C(Cn1cnc([N+](=O)[O-])n1)N/N=C/c1cc(Cl)ccc1O	4.77 µM
O=C(Nc1nnc(C2CC2)o1)c1ccc(S(=O)(=O)N2CCCCC2)cc1	18.4 µM
O=c1[nH]c(O)c(N=Nc2cc([N+](=O)[O-])ccc2O)c(=O)[nH]1	25.5 µM
CCOC(=O)/C(=N/Nc1ccccc1OC)N1CCCc2ccccc21	17.3 µM
Cc1ccsc1C(=O)Nc1nnc(-c2ccco2)o1	9.04 µM
c1ccc(-c2nnc(-c3ccccn3)nc2Nc2cnc3ccccc3n2)cc1	< 0.5 µM
CCN(CC)C(=O)c1sc2nc(-c3ccccn3)[nH]c(=O)c2c1C	10.5 µM
O=C(N[C@@H]1CC[C@@H](CCn2cc(-c3ccccn3)nn2)O[C@H]1CO)c1ccccc1	9.23 µM
CC(=O)Nc1cccc(C(=O)OCC(=O)Nc2nnc(-c3ccccc3)o2)c1	16.3 µM
COc1ccccc1C(CCNCc1ccc(N(C)C)cc1)c1ccc(OC(C)C)cc1 (stereo unspecified)	7.83 µM
O=C(Nc1nc(-c2ccccn2)cs1)c1ccco1	2.17 µM
O=[N+]([O-])c1ccc(O)c(-c2nn[nH]n2)c1	14 µM

Structure (SMILES)	AC50
O=C(Nc1nc(-c2ccccn2)cs1)C1COc2ccccc2O1 (stereo unspecified)	5.46 µM
C#CCOCCOCCOCCNc1nc(N2CCN(C(=O)[C@H](CC(N)=O)n3cc([C@@H](N)CC(N)=O)nn3)CC2)nc(N2CCN(C(=O)[C@H](CC(N)=O)n3cc([C@@H](N)CC(N)=O)nn3)CC2)n1	47.1 µM
COc1ccc(CNc2nc(-c3ccccn3)nnc2-c2ccccc2)cc1	0.611 µM
COc1ccc(C(=O)Nc2nnc(C3=COCCO3)o2)cc1	24.9 µM
CN1CCN(c2nc(-c3ccccn3)nnc2-c2ccccc2)CC1	< 0.5 µM
Oc1ccc(CNC2Cc3ccccc3C2)c2cccnc12	0.63 µM
COc1cccc(CNC(=O)CSc2ccc(-c3ccccn3)nn2)c1	4.03 µM
O=C(CSc1n[nH]c(-c2ccccn2)n1)Nc1cccc(Cl)c1	4.78 µM
COc1ccc(NC(=O)CSc2n[nH]c(-c3ccccn3)n2)cc1	0.963 µM
CC1CC1C(=O)Nc1nc(-c2ccccn2)cs1 (stereo unspecified)	15.2 µM
O=C(O)C1Nc2c(O)cc(Cl)c([N+](=O)[O-])c2C2C=CCC12 (stereo unspecified)	28.1 µM
Cc1ccc(C(=O)Nc2nc(-c3ccccn3)cs2)o1	2.07 µM
CCOC(=O)N1CCN(S(=O)(=O)c2ccc(C(=O)Nc3nnc(C4CC4)o3)cc2)CC1	13.4 µM
O=C(CSc1cccc2cccnc12)N1CCCC1	3.28 µM
Cc1cc(C)c(S(=O)(=O)N2CCOC2CNC(=O)C(=O)NCCCn2ccnc2)c(C)c1 (stereo unspecified)	5.58 µM
CC(Oc1ccccc1)C(=O)Nc1nc(-c2ccccn2)cs1 (stereo unspecified)	13.2 µM
O=C(N[C@H]1CC[C@H](CCn2cc(-c3ccccn3)nn2)O[C@@H]1CO)c1ccc(F)cc1	23.1 µM
CC(=O)NC(C)c1cc(Cl)c2cccnc2c1O (stereo unspecified)	6.14 µM
Nc1ncnc(Oc2cccc3cccnc23)c1[N+](=O)[O-]	11.1 µM
Cc1ccc(C)c(NC(=O)CSc2n[nH]c(-c3ccccn3)n2)c1	0.574 µM
O=C(COc1ccc([N+](=O)[O-])cc1)Nc1nc(-c2ccccn2)cs1	6.57 µM

Structure (SMILES)	AC50
CO[C@@H]1CN(C)C(=O)c2ccc(NC(=O)c3ccccn3)cc2OC[C@@H](C)N(C(=O)C2CC2)C[C@H]1C	13.1 µM
CCCCCOc1ccc(NC(=O)CSc2cccc3cccnc23)cc1	9.17 µM
COc1cc2c(cc1OC)-c1c3c(cc4c1[C@@H](C2)N(C)CC4)OCO3	17.6 µM
CSCCC(=O)Nc1nc(-c2ccccn2)cs1	8.98 µM
O=C(Nc1nc(NC(=O)c2ccco2)n(-c2ccccc2)n1)c1ccccc1	12.9 µM
Cc1ccccc1CNc1nc(-c2ccccn2)nnc1-c1ccccc1	0.647 µM
O=S(=O)(c1cccc2cccnc12)N1CCN(Cc2ccc(OCCO)cc2)CC1	48.2 µM
COc1cc(CNCc2ccccn2)ccc1OCc1ccc(Cl)cc1	60.7 µM
CCCn1nc(C(=O)Nc2nc(-c3ccccn3)cs2)c2ccccc2c1=O	9.63 µM
CC(C)C(=O)NC(c1cccc([N+](=O)[O-])c1)c1ccc2cccnc2c1O (stereo unspecified)	3.82 µM
CC(=O)Nc1cccc(C(=O)O)n1	12.2 µM
COc1cc(C(=O)NCc2nnc(SCC(=O)Nc3nccs3)o2)cc(OC)c1OC	58.8 µM
COc1ccccc1-c1nnc(NC(=O)Cc2ccccc2)o1	35 µM
c1ccc(CNc2nc(-c3ccccn3)nc3ccccc23)cc1	11.4 µM
O=C(N/N=C(\c1ccccc1)c1cccnc1)c1cccc(F)c1	21.7 µM
FC(F)(F)c1cnc(C(c2ccccn2)c2ncn[nH]2)c(Cl)c1 (stereo unspecified)	3.93 µM
COc1cc(NC(=O)CSc2ccc(-c3ccccn3)nn2)cc(OC)c1	1.78 µM
O=c1[nH][nH]c(=O)c2nc(Nc3ccccc3)ncc12	66.1 µM
c1ccc(-c2nnc(-c3ccccn3)nc2NCC2CCCCC2)cc1	0.994 µM
CCc1ccc(NC(=O)CSc2ccc(-c3ccccn3)nn2)cc1	4.37 µM
CC1OC(CC(=O)O)CC2=C1C(=O)c1c(O)cccc1C2=O (stereo unspecified)	46.9 µM

Structure (SMILES)	AC50
O=S(=O)(N[C@H]1CC[C@H](CCn2cc(-c3ccccn3)nn2)O[C@@H]1CO)c1cccc(F)c1	10.7 µM
COc1cc(OC)cc(C(=O)Oc2c(CN3CCOCC3)cc(Cl)c3cccnc23)c1	31.1 µM
CC(C)(C)C1=CC(=Nc2ccccc2N)C=C(C(C)(C)C)C1=O	1.47 µM
CC1(C)Cc2c(sc3nc4n(-c5ccccc5)c(=O)c(CCC(=O)O)nn4c(=O)c23)CO1	19.2 µM
CS(=O)(=O)c1cccc(C(=O)Nc2nnc(C3=COCCO3)o2)c1	45.6 µM
Cc1nc2ncccn2c1-c1csc(Nc2ccccc2)n1	41.6 µM
COc1cccc(C(=O)Nc2nnc(-c3cccs3)o2)c1	21.4 µM
CC(=O)/C(=N\Nc1ccc(Cl)cc1Cl)Sc1cccc2cccnc12	2.95 µM
CN1CCN(C2CCN(Cc3ccc(O)c4ncccc34)CC2)CC1	2.3 µM
Cc1ccc(C)c(S(=O)(=O)N2CCN(Cc3ccc(O)c4ncccc34)CC2)c1	5.27 µM
CN1CCN(C(=O)c2cccc(-c3cc(O)c4ncccc4c3)c2)CC1	2.72 µM
Cc1c(C(=O)N(C)C)sc2nc(-c3ccccn3)[nH]c(=O)c12	2.78 µM
Clc1ccc(-c2ccc(CNCc3ccccn3)o2)cc1	20 µM
COC(=O)c1ccc(CSc2ccc3nnc(-c4ccccn4)n3n2)o1	17.4 µM
CC(C)(C)c1ccc(CNc2nc(-c3ccccn3)nnc2-c2ccccc2)cc1	1.33 µM
O=C(N[C@H]1CC[C@H](CCn2cc(-c3ccccn3)nn2)O[C@@H]1CO)c1cccnc1	9.74 µM
Cc1c(Cl)cccc1-c1ccc(CNCc2ccccn2)o1	35.2 µM
Cc1ccccc1C(=O)Nc1nnc(-c2ccco2)o1	43.1 µM
